Data on three molecules can be found in patent publication US20240261296A1, “THERAPEUTIC MODALITIES FOR INHIBITING PANCREATIC BETA CELL IMPAIRMENT AND TREATING DIABETES” (Hadasit Medical Research Serices & Development Ltd., priority 2021, published 2024).

One data set has as its system C57Bl/6 mice. As to the kind of experiment: acute toxicity, IP and oral. The data set is classed as in vivo. To be noted: for physical or behavioral differences: IP 3 mg/kg or gavage total 9 mg/kg; for differences between experimental groups and saline/DMSO control mice (summary): IP 3 mg/kg/mouse or gavage 9 mg/kg/mouse. Here is the method:
The safety of compounds C5 and C13 was examined in various in vivo settings, and compared to that of L-798106. The compounds were administered by oral gavage or intraperitoneal (IP) injection to C57Bl/6 mice, and acute toxicity, liver and kidney functions and blood glucose and insulin levels were evaluated. Additional safety experiments and measurements of various blood parameters in diabetic mice are further presented in Example 12 below.
Acute toxicity—IP and oral. For acute toxicity studies, a single IP dose of 3 mg/kg, or three oral doses (total of 9 mg/Kg) were administered. No mortality was observed by the end of the monitoring period (two days for IP administration or four days for oral administration), and all animals survived both modes of administration. No physical or behavioral differences were observed between the different groups and between the two modes of drug administration. Pictures of the sites of IP injection were taken when animals were sacrificed and no damage was observed.
Male mice (n=8 per group) were assigned to the following test groups. A dosage of 3 mg/kg/mouse was administered daily for 3 consecutive days in 200 μl of:
Group A: saline and DMSO carrier (referred to throughout the drawings and examples describing the in vivo experiment as “Control-Saline”, “Vehicle”, “Saline” or “Control”), at the equivalent concentration administered the other test groups (2.5%). Group B: Compound 1b (C5) at 3 mg/Kg: (total of 9 mg/Kg). Group C: Compound 1a (C13) at 3 mg/Kg: (total of 9 mg/Kg). Group D: L-798106 at 3 mg/Kg: (total of 9 mg/Kg).

A short description of data set [1]: liver function parameters in sera of C57Bl/6 mice. The data set is classed as in vivo. Here is the method: Blood was collected by cardiac puncture, and 50 μl were collected in EDTA containing tubes for cell blood count (CBC). Further, 200-300 μl of blood was centrifuged and serum was collected for biochemical analysis. C. Effects of orally administered compounds on liver function parameters: The blood levels of albumin, the liver aspartate transaminase (AST) and alanine transaminase (ALT) were measured in the sera obtained from mice 24 h after the third gavage with saline/DMSO (Control Saline); 3 mg/kg/day Compound C5; Compound C13 or the EP3 antagonist L-798106. Results are presented in FIG. 11A for Albumin, FIG. 11B for AST, and FIG. 11C for ALT. […] All p-values >0.05. C. Liver function parameters: Blood levels of albumin (FIG. 14A), liver transaminases: aspartate transaminase (AST, FIG. 14B) and alanine transaminase (ALT, FIG. 14C), as well as bilirubin, were measured in sera obtained from mice 24 h after injection of either Saline/DMSO (Control Saline); C5; C13 or L-798106. […] Typically, this biomarker levels rise with liver injury and help monitor function under drugs treatment. Here a decrease in the levels of ALT in the serum of L-798106- and C13-treated mice, is not considered to indicate liver damage. Bilirubin<1 μM was measured in all test groups.

The test system of a further data set is db/db mice. Briefly: fasting blood glucose (FBG) in db/db and control mice. The data set is classed as in vivo. From the text: Fasting blood glucose (FBG) concentrations in each of the treated groups were also compared following 4- and 8-weeks treatment as described in Example 9. Results for the 4-weeks treatment of the control mice and the db/db mice are presented in FIGS. 20A-20B respectively and for the 8-weeks treatment of the control mice and the db/db mice are presented in FIGS. 20C-20D, respectively; each treatment is graphically represented as described in Example 9.
FBG concentrations. FBG concentrations in each of the treated groups, vehicle, L-798106, C17 and C20, was compared following 4- and 8-weeks treatment essentially as described in Example 11. Results for the 4-weeks treatment of the control mice and the db/db mice are presented in FIGS. 29A-29B respectively and for the 8-weeks treatment of the control mice and the db/db mice are presented in FIGS. 29C-29D, in which, each treatment is graphically represented as described in Example 14, The numbers of tested mice are as follows: control mice (n=10-15), db/db mice (n=10).

A short description of data set [2]: lipid parameters in sera of db/db mice. Type of data set: in vivo. The conditions noted are these: 8 weeks of treatment; for blood triglyceride levels: vs vehicle. Here is the method:
At the end of the 8 week-long period of treatment as described in Example 9, mice were sacrificed and blood samples were collected, and analyzed for different parameters as detailed below.
Lipid parameters in sera. Mice lipid profiles were assessed by measuring triglycerides and total cholesterol levels in the sera of the treated mice. The results for the triglycerides and cholesterol levels in db/db mice are presented in FIGS. 24A-24B respectively, in which, each treatment is graphically represented as described in Example 9, for each group n=5, data is presented ±SEM. Statistical analysis between each treated-group compared to vehicle was performed p-value for C5=0.06, for C13=0.02 and p >0.05 for the rest of the tests.

A further data set has as its system INS1 and INS2 genes. As to the kind of experiment: insulin gene expression in palmitate-treated MIN6 cells (real-time PCR). The data set is classed as cell-based, murine. To be noted: 10 μM, in the presence of palmitate. Here is the method: Real-time PCR: Total RNA from MIN6 cells or islets was extracted using TRIzol (Invitrogen, Carlsbad, CA, USA) and 2 μg of total RNA was converted to cDNA using SuperScript® III Reverse Transcriptase (Invitrogen, Carlsbad, CA, USA). 2.5-5 ng cDNA was used for each real-time PCR reaction. Real-time reaction was performed using Platinum SYBR Green qPCR SuperMix-UDG with ROX reference dye (Applied Biosystems). The primers used were as follows: GAPDH forward (F): […]; GAPDH reverse (R): […]; Ins1 (F): AACCCCCAGCCCTTAGTGA; (R): […]; Ins2 (F): […]; (R): […] (SEQ ID Nos: 1-6, respectively). Additional primers used as controls are directed to HPRT, as follows: HPRT (F): […] HPRT (R) […] (SEQ ID Nos: 7-8, respectively).
PA decreases the expression of β-cell specific genes, including insulin. The effect of the selected compounds on insulin gene expression was further tested in MIN6 cells. Rodent β-cells have two insulin genes (INS1 and INS2). MIN6 cells were exposed to C5 or L-798106 (10 μM) in the presence or absence of palmitic acid, and mRNAs insulin levels were measured by real-time PCR. FIGS. 6A-6B present the expression levels of INS1 and INS2 genes, respectively, normalized to GAPDH expression levels. Data of n=3±SEM is presented.

The mark [3] stands for this setting: oral 3 mg/kg/day, 24 h after third gavage.
Where [4] appears, read: 4 weeks of treatment, vs vehicle.

As for `CC[C@H](C)c1ccc(S(=O)(=O)Nc2ccccc2C(=O)N2C[C@@H](C)O[C@@H](C)C2)cc1` [Compound C5, 4-((S)-sec-butyl)-N-(2-((2S,6R)-2,6-dimethylmorpholine-4-carbonyl)phenyl)benzenesulfonamide], in the data set on C57Bl/6 mice, the “physical or behavioral differences” value is on record as “No physical or clinical behavioral differences”; the “differences between experimental groups and saline/DMSO control mice (summary)” value was “no significant differences were observed”. In data set [1] (IP, 24 h after injection), the “alanine transaminase (ALT)” value is given as “no statistically significant differences”, the albumin entry is given as “no statistically significant differences” and the “aspartate transaminase (AST)” value is “no statistically significant differences”. Further, in data set [1] (setting [3]), the “alanine transaminase (ALT)” value is “no statistically significant differences”, the albumin entry is listed as “no statistically significant differences” and the “aspartate transaminase (AST)” value is given as “no statistically significant differences”. Also, the “FBG in db/db mice” value in the data set with db/db mice (setting [4]) is given as “significant decrease in FBG”. Moreover, the “FBG in control mice” value in the data set on db/db mice (8 weeks of treatment) is given as “decrease in FBG in the control mice, although to a much lesser extent”. Besides, in data set [2], the total cholesterol levels result was “No effect on total cholesterol levels” and the blood triglyceride levels entry was “significant reduction”. Moreover, in the data set on INS1 and INS2 genes, the “effect on insulin gene expression relative to L-798106” value is recorded as “appeared to be more significant” and the “insulin gene expression (INS1, INS2) normalized to GAPDH” value is reported as “enhanced insulin gene expression”.
On to `CC[C@@H]1CC[C@H](C)N1C(=O)c1cccc(NS(=O)(=O)c2ccc(C)c(F)c2)c1` [Compound C13, N-(3-((2R,5S)-2-ethyl-5-methylpyrrolidine-1-carbonyl)phenyl)-3-fluoro-4-methylbenzenesulfonamide], for which, in the data set with C57Bl/6 mice, the “physical or behavioral differences” value was “No physical or clinical behavioral differences”; the “differences between experimental groups and saline/DMSO control mice (summary)” value was “no significant differences were observed”. Besides, in data set [1] (IP, 24 h after injection), the “alanine transaminase (ALT)” value is recorded as “lower concentrations of alanine transaminase”, the albumin entry was “no statistically significant differences” and the “aspartate transaminase (AST)” value is “no statistically significant differences”. For the same molecule, in data set [1] (setting [3]), the “alanine transaminase (ALT)” value is reported as “no statistically significant differences”, the albumin result is “no statistically significant differences” and the “aspartate transaminase (AST)” value was “no statistically significant differences”. The “FBG in db/db mice” value in the data set on db/db mice (setting [4]) is recorded as “significant decrease in FBG”. In addition, in the data set on db/db mice (8 weeks of treatment), the “FBG in control mice” value is on record as “decrease in FBG in the control mice, although to a much lesser extent” and the “FBG in db/db mice” value was “significantly more pronounced”. In data set [2], the total cholesterol levels entry was “No effect on total cholesterol levels” and the blood triglyceride levels entry is “significant reduction”.
As for `COc1ccc(Br)cc1S(=O)(=O)NC(=O)/C=C/c1ccccc1Cc1ccc2ccccc2c1` [Compound L-798106, (2E)-N-[(5-bromo-2-methoxyphenyl)sulfonyl]-3-[2-(2-naphthalenylmethyl)phenyl]-2-propenamide, reference compound], in the data set on C57Bl/6 mice, the “physical or behavioral differences” value was “No physical or clinical behavioral differences”; the “differences between experimental groups and saline/DMSO control mice (summary)” value is “no significant differences were observed”. Moreover, in data set [1] (IP, 24 h after injection), the “alanine transaminase (ALT)” value was “lower concentrations of alanine transaminase”, the albumin result is “no statistically significant differences” and the “aspartate transaminase (AST)” value is given as “no statistically significant differences”. In addition, in data set [1] (setting [3]), the “alanine transaminase (ALT)” value is “no statistically significant differences”, the albumin entry is given as “no statistically significant differences” and the “aspartate transaminase (AST)” value is reported as “no statistically significant differences”. In addition, in the data set on db/db mice (setting [4]), the “FBG in db/db mice” value is on record as “significant decrease in FBG”. In the data set with db/db mice (8 weeks of treatment), the “FBG in control mice” value is “decrease in FBG in the control mice, although to a much lesser extent” and the “FBG in db/db mice” value was “significantly more pronounced”. For the same molecule, in data set [2], the total cholesterol levels result is “No effect on total cholesterol levels” and the blood triglyceride levels entry was “did not exhibit a statistically-significant reduction”. Also, in the data set with INS1 and INS2 genes, the “insulin gene expression (INS1, INS2) normalized to GAPDH” value is on record as “enhanced insulin gene expression”.
